The IC50 is the concentration at which inhibition is half-maximal.

Data set [1] relates to Leishmania amazonensis. Briefly: Antileishmanial activity against Leishmania amazonensis Leishmania amazonensis MHOM/BR/77/LTB0016 intracellular amastigotes infected in BALB/c mouse macrophages incubated for 72 hrs by microscopy. Format: functional, organism-based. As to conditions: MHOM/BR/77/LTB0016, 72 h.
A short description of data set [2]: Cytotoxicity against BALB/c mouse peritoneal macrophages assessed as cell viability after 72 hrs by resazurin assay. The class given is cell-based, Peritoneal macrophage cell. As to conditions: read-out: LD50. In general terms: Resazurin is reduced to fluorescent resorufin, in cell work by metabolically active cells.
The nature of data set [3]: Selectivity index, ratio of LD50 for BALB/c mouse peritoneal macrophages to IC50 for Leishmania amazonensis MHOM/BR/77/LTB0016 intracellular amastigotes infected in BALB/c mouse peritoneal macrophages.
Data set [4] relates to Leishmania amazonensis. Kind of data set: Antileishmanial activity against Leishmania amazonensis MHOM/BR/77/LTB0016 assessed as inhibition of parasite growth incubated for 72 hrs by MTT assay. The class given is functional, organism-based. As to conditions: for IC50: MHOM/BR/77/LTB0016, 72 h. (Tetrazolium dyes change colour on reduction, which living cells bring about.)
Data set [5] is described as follows: Cytotoxicity against BALB/c mouse peritoneal macrophages infected with Leishmania amazonensis MHOM/BR/77/LTB0016 intracellular amastigotes assessed as cell viability at 12.5 to 100 uM after 72 hrs by resazurin staining based optical microscopy. As to conditions: peritoneal macrophage cell.
The test system of data set [6] is Leishmania amazonensis. Briefly: Antileishmanial activity against Leishmania amazonensis Leishmania amazonensis MHOM/BR/77/LTB0016 intracellular amastigotes infected in BALB/c mouse macrophages at 12.5 to 100 uM incubated for 72 hrs by optical microscopy. Format: functional, organism-based.

The source made the active and inactive calls. The calls are words filed in the database; no cut-off is given here.

For `N=C(N)c1ccc(OCCCCCOc2ccc(C(=N)N)cc2)cc1` [PENTAMIDINE], 1.9 µM corresponded to half-maximal inhibition in data set [1] (IC50). Moreover, in data set [2], the CC50 at 72 h was determined as 8.5 µM. Also, in data set [3], the “Ratio LD50/IC50” value is recorded as 4.5. Moreover, in data set [4], the inhibition entry is “Dose-dependent effect” and the IC50 turned out to be 4.8 µM.

Turning to `NC(=S)N/N=C/c1ccc2c(c1)OCO2`, in data set [4], the inhibition entry was “Dose-dependent effect” and the IC50 amounted to 79.7 µM.

Regarding `NC(=S)N/N=C/c1cc2c(cc1O)OCO2`, in data set [4], the inhibition result was “Dose-dependent effect” and the IC50 was found to be 53 µM.

For the molecule `NC(=S)N/N=C/c1cc2c(cc1[N+](=O)[O-])OCO2`, in data set [4], the inhibition result was “Dose-dependent effect” and the IC50 was 271 µM.

In the case of `NC(=S)N/N=C/c1cc2c(cc1Br)OCO2`, in data set [4], the inhibition entry was “Dose-dependent effect” and the IC50 was 202 µM.

For `NC(=S)N/N=C/c1cc2c(cc1F)OCO2`, in data set [4], the inhibition result was “Dose-dependent effect” and the IC50 was determined as 197 µM.

`NC(=S)N/N=C/c1cc2c(cc1NC(=O)CCl)OCO2`: in data set [4], the inhibition result is “Dose-dependent effect” and the IC50 was found to be 256 µM.

`NC(=S)N/N=C/c1cc2c(cc1I)OCO2`: in data set [1], the IC50 is 22 µM. Also, the CC50 at 72 h in data set [2] was > 125 µM. In addition, the “Ratio LD50/IC50” value in data set [3] is reported as >5.7. Moreover, the Activity result in data set [5] was “Non-toxic”. Also, in data set [6], the outcome was Active. In data set [4], the inhibition result was “Dose-dependent effect” and the IC50 came to 20.7 µM.

For the molecule `NC(=S)N/N=C/c1cc2c(cc1Cl)OCO2`, in data set [4], the inhibition entry is “Dose-dependent effect” and the IC50 amounted to 244 µM.

Turning to `NC(=S)N/N=C/c1cc2c(cc1N)OCO2`, in data set [4], the inhibition result is “Dose-dependent effect” and the IC50 was determined as 119 µM.

`N#Cc1cc2c(cc1/C=N/NC(N)=S)OCO2` yielded an IC50 in data set [1] of 17 µM. Also, the CC50 at 72 h in data set [2] was > 125 µM. The “Ratio LD50/IC50” value in data set [3] is >7.4. Also, in data set [5], the Activity entry is listed as “Non-toxic”. Moreover, the outcome in data set [6] was Active. Moreover, in data set [4], the inhibition entry is “Dose-dependent effect” and the IC50 was found to be 16.4 µM.
